# In ChEMBL document CHEMBL4507274 (2021):
# How the values were obtained:
# [1] = molecular target: RAC-gamma serine/threonine-protein kinase (Homo sapiens) (UniProt Q9Y243); test: PKBγgamma(h) Upstate kinase activity assay; details: Compound concentration 10.0 uM
# [2] = molecular target: Ribosomal protein S6 kinase alpha-2 (Homo sapiens) (UniProt Q15349); test: Rsk3 (h) Upstate kinase activity assay; details: Compound concentration 10.0 uM
# [3] = molecular target: Serine/threonine-protein kinase N2 (Homo sapiens) (UniProt Q16513); test: PRK2 (h) Upstate kinase activity assay; details: Compound concentration 10.0 uM
# Sequence of Serine/threonine-protein kinase N2 (Homo sapiens) (Q16513 whole entry, looked up): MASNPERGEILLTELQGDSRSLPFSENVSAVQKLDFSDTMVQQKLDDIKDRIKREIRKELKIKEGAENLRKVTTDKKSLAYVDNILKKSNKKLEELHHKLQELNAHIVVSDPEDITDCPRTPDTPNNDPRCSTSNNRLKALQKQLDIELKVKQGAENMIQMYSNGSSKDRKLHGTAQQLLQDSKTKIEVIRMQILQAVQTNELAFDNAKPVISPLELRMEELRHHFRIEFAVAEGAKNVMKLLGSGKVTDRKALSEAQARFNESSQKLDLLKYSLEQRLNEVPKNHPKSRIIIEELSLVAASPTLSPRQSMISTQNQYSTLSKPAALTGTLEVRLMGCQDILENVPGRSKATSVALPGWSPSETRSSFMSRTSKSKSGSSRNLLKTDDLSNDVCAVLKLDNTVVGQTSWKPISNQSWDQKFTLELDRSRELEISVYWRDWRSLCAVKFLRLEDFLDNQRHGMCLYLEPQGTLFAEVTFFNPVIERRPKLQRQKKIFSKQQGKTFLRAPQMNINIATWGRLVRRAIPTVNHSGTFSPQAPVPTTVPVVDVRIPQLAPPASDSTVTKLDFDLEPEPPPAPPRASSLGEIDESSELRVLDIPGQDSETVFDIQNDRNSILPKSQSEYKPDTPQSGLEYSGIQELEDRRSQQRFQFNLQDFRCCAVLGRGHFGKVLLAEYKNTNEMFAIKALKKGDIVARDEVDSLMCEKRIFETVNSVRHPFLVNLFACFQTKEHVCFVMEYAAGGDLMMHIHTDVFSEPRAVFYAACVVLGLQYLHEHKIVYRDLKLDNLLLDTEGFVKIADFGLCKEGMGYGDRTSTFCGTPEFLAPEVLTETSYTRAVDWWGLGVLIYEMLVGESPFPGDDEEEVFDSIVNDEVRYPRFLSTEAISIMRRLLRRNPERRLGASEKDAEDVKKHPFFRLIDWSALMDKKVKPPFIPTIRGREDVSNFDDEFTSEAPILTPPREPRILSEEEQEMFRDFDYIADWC
# [4] = tested on: A549; test: Lung A549 cell line MDS Pharma Services Proliferation Assay; type: functional, cell-based, Homo sapiens
# [5] = tested on: Tyrosine-protein kinase ABL1 (Homo sapiens), P00519 [T315I]; test: Abl(T315I) (h) Upstate kinase activity assay; details: Compound concentration 10.0 uM
# [6] = molecular target: Hepatocyte growth factor receptor (Homo sapiens) (UniProt P08581); test: Met (h) Upstate kinase activity assay; details: Compound concentration 10.0 uM
# Sequence of Hepatocyte growth factor receptor (Homo sapiens) (P08581 whole entry): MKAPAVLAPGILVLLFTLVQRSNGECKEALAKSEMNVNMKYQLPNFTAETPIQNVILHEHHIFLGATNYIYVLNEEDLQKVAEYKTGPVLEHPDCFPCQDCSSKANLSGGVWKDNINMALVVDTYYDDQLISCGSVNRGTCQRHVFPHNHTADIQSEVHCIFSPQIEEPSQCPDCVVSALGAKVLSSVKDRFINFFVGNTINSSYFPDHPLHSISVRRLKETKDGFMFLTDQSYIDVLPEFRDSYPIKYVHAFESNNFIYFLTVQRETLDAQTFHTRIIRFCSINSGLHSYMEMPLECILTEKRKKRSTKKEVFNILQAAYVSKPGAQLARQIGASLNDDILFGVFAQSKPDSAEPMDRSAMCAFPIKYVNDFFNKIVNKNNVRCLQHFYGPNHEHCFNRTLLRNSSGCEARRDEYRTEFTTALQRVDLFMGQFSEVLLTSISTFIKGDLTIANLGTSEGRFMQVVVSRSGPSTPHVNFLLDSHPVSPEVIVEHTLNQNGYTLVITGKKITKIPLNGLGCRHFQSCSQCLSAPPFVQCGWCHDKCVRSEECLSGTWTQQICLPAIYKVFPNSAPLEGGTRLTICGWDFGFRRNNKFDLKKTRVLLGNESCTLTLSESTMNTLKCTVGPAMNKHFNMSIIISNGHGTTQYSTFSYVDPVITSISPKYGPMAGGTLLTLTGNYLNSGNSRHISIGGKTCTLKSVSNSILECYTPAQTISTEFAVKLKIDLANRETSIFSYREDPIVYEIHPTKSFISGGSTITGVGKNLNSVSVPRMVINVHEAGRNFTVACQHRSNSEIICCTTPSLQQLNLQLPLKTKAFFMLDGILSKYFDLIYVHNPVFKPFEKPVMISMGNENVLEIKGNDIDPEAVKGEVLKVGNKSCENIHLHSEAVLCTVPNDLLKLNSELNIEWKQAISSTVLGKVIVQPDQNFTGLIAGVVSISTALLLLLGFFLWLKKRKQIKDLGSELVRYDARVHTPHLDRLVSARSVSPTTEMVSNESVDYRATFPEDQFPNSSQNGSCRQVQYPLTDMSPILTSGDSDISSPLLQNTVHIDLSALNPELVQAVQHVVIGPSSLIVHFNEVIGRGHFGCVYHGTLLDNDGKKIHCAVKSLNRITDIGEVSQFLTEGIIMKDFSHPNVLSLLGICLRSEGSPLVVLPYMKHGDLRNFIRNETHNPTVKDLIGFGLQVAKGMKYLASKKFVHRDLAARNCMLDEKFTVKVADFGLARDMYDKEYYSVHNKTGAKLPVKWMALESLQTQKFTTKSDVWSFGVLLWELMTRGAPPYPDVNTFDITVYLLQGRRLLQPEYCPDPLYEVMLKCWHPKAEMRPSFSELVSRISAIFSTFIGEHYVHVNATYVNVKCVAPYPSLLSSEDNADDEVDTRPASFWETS
# [7] = molecular target: Ribosomal protein S6 kinase beta-1 (Homo sapiens) (UniProt P23443); test: […] (h) Upstate kinase activity assay; details: Compound concentration 10.0 uM
# [8] = molecular target: Receptor tyrosine-protein kinase erbB-4 (Homo sapiens) (UniProt Q15303); test: ErbB4 (h) Upstate kinase activity assay; details: Compound concentration 10.0 uM
# Sequence of Receptor tyrosine-protein kinase erbB-4 (Homo sapiens) (Q15303 whole entry): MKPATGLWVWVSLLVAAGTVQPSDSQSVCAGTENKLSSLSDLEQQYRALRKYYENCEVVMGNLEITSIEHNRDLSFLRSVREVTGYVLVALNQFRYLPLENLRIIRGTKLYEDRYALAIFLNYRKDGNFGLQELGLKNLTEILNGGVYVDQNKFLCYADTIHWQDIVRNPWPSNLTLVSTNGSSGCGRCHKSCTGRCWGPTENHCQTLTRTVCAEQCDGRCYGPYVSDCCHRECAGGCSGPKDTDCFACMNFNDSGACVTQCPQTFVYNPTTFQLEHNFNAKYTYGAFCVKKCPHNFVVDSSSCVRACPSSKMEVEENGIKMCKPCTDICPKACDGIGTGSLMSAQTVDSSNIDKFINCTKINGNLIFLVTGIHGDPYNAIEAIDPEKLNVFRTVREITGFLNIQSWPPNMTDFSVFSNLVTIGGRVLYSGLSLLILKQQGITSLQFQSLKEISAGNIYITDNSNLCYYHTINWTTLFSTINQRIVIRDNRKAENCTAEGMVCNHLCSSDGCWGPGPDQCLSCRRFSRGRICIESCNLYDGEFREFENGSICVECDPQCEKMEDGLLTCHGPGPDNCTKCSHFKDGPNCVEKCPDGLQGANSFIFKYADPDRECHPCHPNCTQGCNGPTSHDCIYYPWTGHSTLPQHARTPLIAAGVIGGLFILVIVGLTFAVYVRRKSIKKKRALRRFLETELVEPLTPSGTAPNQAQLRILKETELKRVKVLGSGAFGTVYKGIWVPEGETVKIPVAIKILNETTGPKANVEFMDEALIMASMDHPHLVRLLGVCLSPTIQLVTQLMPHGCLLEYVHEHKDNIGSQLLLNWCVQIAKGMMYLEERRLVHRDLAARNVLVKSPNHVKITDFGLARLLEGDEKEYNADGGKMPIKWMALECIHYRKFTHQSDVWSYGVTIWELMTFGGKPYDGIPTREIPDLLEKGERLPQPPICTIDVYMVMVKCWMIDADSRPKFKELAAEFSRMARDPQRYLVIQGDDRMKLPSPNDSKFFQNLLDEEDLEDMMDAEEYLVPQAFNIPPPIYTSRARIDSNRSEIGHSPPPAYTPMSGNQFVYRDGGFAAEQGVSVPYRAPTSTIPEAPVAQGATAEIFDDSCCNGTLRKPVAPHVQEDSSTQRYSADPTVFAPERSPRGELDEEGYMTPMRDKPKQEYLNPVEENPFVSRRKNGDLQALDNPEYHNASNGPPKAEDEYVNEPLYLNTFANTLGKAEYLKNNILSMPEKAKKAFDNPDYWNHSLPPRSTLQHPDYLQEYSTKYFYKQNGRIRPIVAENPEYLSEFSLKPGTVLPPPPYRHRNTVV
# [9] = molecular target: T1, Serine/threonine-protein kinase D1 (Homo sapiens) (UniProt Q15139); test: PKCmu (h) Upstate kinase activity assay; details: Compound concentration 10.0 uM
# T1 sequence (whole entry): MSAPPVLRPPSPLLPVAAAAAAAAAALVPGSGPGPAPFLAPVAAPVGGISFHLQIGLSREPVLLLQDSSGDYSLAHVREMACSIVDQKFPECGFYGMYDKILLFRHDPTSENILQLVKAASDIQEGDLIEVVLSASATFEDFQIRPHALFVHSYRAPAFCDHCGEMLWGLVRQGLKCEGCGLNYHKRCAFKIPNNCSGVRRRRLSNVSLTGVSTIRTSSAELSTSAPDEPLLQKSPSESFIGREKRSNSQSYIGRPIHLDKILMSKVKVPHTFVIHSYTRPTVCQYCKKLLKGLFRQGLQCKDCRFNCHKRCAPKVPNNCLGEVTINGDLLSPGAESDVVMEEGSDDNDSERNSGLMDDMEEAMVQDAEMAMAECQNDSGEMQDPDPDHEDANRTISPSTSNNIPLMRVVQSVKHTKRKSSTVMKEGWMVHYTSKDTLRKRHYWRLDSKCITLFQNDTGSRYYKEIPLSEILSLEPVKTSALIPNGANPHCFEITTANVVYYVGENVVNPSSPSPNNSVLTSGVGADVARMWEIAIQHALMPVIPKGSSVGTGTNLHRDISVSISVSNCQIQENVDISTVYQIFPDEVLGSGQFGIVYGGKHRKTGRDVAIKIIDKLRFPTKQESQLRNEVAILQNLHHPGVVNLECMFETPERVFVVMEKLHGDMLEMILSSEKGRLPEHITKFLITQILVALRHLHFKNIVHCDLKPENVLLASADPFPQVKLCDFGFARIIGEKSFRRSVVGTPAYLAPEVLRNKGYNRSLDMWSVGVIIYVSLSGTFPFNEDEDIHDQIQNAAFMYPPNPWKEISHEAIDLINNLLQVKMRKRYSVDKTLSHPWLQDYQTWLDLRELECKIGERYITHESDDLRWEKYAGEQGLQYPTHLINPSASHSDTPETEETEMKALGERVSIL
# [10] = molecular target: Ribosomal protein S6 kinase alpha-3 (Homo sapiens) (UniProt P51812); test: Rsk2 (h) Upstate kinase activity assay; details: Compound concentration 10.0 uM
# [11] = Leukemia […] cell line MDS Pharma Services Proliferation Assay; type: functional, cell-based, Homo sapiens
# [12] = molecular target: Tyrosine-protein kinase Fyn (Homo sapiens) (UniProt P06241); test: Fyn (h) Upstate kinase activity assay; details: Compound concentration 10.0 uM
# Sequence of Tyrosine-protein kinase Fyn (Homo sapiens) (P06241 2-537 limits assumed): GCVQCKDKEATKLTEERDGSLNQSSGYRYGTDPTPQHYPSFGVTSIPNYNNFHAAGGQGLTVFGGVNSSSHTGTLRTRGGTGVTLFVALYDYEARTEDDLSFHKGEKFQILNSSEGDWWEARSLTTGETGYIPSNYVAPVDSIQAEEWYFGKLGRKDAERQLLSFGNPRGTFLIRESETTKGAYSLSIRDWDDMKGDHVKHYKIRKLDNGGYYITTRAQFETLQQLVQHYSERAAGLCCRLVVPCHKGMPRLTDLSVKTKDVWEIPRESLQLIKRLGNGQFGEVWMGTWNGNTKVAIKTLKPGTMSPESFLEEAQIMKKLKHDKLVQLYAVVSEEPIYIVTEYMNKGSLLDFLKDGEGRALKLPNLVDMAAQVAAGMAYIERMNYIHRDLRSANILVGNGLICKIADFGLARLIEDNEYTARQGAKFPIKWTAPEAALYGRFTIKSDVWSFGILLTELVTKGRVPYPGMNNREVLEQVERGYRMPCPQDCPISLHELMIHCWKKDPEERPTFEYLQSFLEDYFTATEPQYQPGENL
# [13] = molecular target: Serine/threonine-protein kinase pim-1 (Homo sapiens) (UniProt P11309); test: Pim-1 (h) Upstate kinase activity assay; details: Compound concentration 10.0 uM
# Sequence of Serine/threonine-protein kinase pim-1 (Homo sapiens) (P11309 whole entry, looked up): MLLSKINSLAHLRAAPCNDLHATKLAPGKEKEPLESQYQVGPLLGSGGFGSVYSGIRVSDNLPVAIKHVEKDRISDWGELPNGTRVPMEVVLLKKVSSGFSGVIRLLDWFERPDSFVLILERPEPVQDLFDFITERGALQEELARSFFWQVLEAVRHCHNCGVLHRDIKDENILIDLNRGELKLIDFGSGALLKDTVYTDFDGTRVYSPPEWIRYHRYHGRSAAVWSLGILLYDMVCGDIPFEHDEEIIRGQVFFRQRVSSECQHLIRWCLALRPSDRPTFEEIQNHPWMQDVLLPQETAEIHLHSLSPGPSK
# [14] = tested on: T47D; test: Breast T-47D cell line MDS Pharma Services Proliferation Assay; type: functional, cell-based, Homo sapiens
# [15] = molecular target: T2, Dual specificity mitogen-activated protein kinase kinase 7 (Homo sapiens) (UniProt O14733); test: MKK7βbeta(h) Upstate kinase activity assay; details: Compound concentration 10.0 uM
# T2 sequence (whole entry): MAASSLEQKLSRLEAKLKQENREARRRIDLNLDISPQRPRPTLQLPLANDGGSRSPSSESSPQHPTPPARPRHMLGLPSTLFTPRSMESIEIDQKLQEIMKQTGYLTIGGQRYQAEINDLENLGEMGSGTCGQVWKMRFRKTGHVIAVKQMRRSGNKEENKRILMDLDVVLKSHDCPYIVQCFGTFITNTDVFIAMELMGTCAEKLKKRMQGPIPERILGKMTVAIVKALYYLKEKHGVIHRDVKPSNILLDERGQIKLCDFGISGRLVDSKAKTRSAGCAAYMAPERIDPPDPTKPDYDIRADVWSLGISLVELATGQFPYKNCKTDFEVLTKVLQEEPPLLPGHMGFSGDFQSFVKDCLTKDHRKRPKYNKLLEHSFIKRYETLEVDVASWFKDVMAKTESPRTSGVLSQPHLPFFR
# [16] = molecular target: Protein kinase C alpha type (Homo sapiens) (UniProt P17252); test: PKCalpha (h) Upstate kinase activity assay; details: Compound concentration 10.0 uM
# [17] = molecular target: Tyrosine-protein kinase Yes (Homo sapiens) (UniProt P07947); test: Yes (h) Upstate kinase activity assay; details: Compound concentration 10.0 uM
# [18] = tested on: PC-3; test: Prostate PC-3 cell line MDS Pharma Services Proliferation Assay; type: functional, cell-based, Homo sapiens
# [19] = molecular target: CDK6/cyclin D3 (Homo sapiens) (UniProt P30281+Q00534); test: CDK6/ cyclin D3 (h) Upstate kinase activity assay; type: protein-complex assay; details: Compound concentration 10.0 uM
# [20] = tested on: Epidermal growth factor receptor (Homo sapiens), P00533 [G719S]; details: Compound concentration 100.0 nM
# [21] = molecular target: Muscarinic acetylcholine receptor M4 (Homo sapiens) (UniProt P08173); details: Compound concentration 10.0 uM
# Sequence of Muscarinic acetylcholine receptor M4 (Homo sapiens) (P08173 whole entry): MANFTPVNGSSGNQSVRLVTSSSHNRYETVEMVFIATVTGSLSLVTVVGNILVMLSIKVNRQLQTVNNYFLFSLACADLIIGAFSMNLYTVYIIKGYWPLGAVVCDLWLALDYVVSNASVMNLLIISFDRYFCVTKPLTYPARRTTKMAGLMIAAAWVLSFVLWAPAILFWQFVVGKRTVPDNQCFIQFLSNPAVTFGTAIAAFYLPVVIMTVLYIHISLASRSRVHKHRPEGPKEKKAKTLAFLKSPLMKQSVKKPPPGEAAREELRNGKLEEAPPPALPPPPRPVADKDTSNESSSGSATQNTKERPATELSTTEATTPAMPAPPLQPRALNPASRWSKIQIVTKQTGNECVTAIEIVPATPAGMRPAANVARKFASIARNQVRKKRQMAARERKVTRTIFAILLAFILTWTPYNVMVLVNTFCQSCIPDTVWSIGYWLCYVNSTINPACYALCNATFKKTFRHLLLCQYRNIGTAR
structure (smiles),measurement,setting,value
Cc1c[nH]c2nccc(Oc3c(F)cc(Nc4cc(Cl)nc(N)n4)cc3F)c12 [BAY-549],inhibition,[1],87%
same,inhibition,[2],48%
same,inhibition,[3],70%
same,IC50,"[4]; Homo sapiens, A549",1.5 µM
same,TGI,"[4]; Homo sapiens, A549",25 µM
same,CC50,"[4]; Homo sapiens, A549, read-out: LC50 (the source's name)",> 100 µM
same,Mean % growth (n = 2) for 1.0 µM probe concentration,[4]; ± SEM 2 % growth,42%
same,Mean % growth (n = 2) for 10.0 µM probe concentration,[4]; ± SEM 2 % growth,7%
same,Mean % growth (n = 2) for 100.0 µM probe concentration,[4]; ± SEM 3 % growth,-15%
same,Mean % growth (n = 2) for 0.01 µM probe concentration,[4]; ± SEM 4 % growth,103%
same,Mean % growth (n = 2) for 0.1 µM probe concentration,[4]; ± SEM 4 % growth,97%
same,inhibition,[5],28%
same,inhibition,[6],82%
same,inhibition,[7],84%
same,inhibition,[8],5%
same,inhibition,[9],60%
same,inhibition,[10],61%
same,IC50,"[11]; Homo sapiens, Leukemia 1-IL-60",21 µM
same,TGI,"[11]; Homo sapiens, Leukemia 1-IL-60",> 100 µM
same,CC50,"[11]; Homo sapiens, Leukemia 1-IL-60, read-out: LC50 (the source's name)",> 100 µM
same,Mean % growth (n = 2) for 100.0 µM probe concentration,[11]; ± SEM 2 % growth,35%
same,Mean % growth (n = 2) for 0.01 µM probe concentration,[11]; ± SEM 4 % growth,98%
same,Mean % growth (n = 2) for 0.1 µM probe concentration,[11]; ± SEM 4 % growth,88%
same,Mean % growth (n = 2) for 1.0 µM probe concentration,[11]; ± SEM 5 % growth,89%
same,Mean % growth (n = 2) for 10.0 µM probe concentration,[11]; ± SEM 6 % growth,53%
same,inhibition,[12],14%
same,inhibition,[13],20%
same,IC50,"[14]; Homo sapiens, T47D",2.9 µM
same,TGI,"[14]; Homo sapiens, T47D",15 µM
same,CC50,"[14]; Homo sapiens, T47D, read-out: LC50 (the source's name)",75 µM
same,Mean % growth (n = 2) for 1.0 µM probe concentration,[14]; ± SEM 1 % growth,86%
same,Mean % growth (n = 2) for 100.0 µM probe concentration,[14]; ± SEM 2 % growth,-45%
same,Mean % growth (n = 2) for 10.0 µM probe concentration,[14]; ± SEM 4 % growth,-2%
same,Mean % growth (n = 2) for 0.01 µM probe concentration,[14]; ± SEM 6 % growth,106%
same,Mean % growth (n = 2) for 0.1 µM probe concentration,[14]; ± SEM 8 % growth,97%
same,inhibition,[15],20%
same,inhibition,[16],6%
same,inhibition,[17],23%
same,IC50,"[18]; Homo sapiens, PC-3",9.4 µM
same,TGI,"[18]; Homo sapiens, PC-3",> 100 µM
same,CC50,"[18]; Homo sapiens, PC-3, read-out: LC50 (the source's name)",> 100 µM
same,Mean % growth (n = 2) for 10.0 µM probe concentration,[18]; ± SEM 1 % growth,48%
same,Mean % growth (n = 2) for 0.01 µM probe concentration,[18]; ± SEM 2 % growth,97%
same,Mean % growth (n = 2) for 1.0 µM probe concentration,[18]; ± SEM 3 % growth,58%
same,Mean % growth (n = 2) for 100.0 µM probe concentration,[18]; ± SEM 3 % growth,29%
same,Mean % growth (n = 2) for 0.1 µM probe concentration,[18]; ± SEM 5 % growth,102%
same,inhibition,[19],9%
Cn1cc(Cl)c2c(Oc3c(F)cc(Nc4cc(Cl)nc(N)n4)cc3F)ccnc21 [BAY-4900],residual activity,[20],98%
same,inhibition,[21],-3.76%
